Experimental data reported in patent US10118947B2, “Modulation of structured polypeptide specificity” (BICYCLE THERAPEUTICS LIMITED, priority 2013, dated 2018).
Where two headings read alike, the source gives them in different places. Numbered stars: 1 amine (or outer) side, 2 acyl side, 3 side chain; on linkers, the order of the positions; unused ones are H or OH. Bridge positions count the residues as written; N and C are the ends. Square brackets hold non-standard residues; d marks the D form. Peptide text beside a SMILES is read from it. Gly(N-CH2CH2-imidazol-4-yl) = O=C(O)CNCCc1c[nH]cn1; TBMB = c1c(C[*:1])cc(C[*:3])cc1C[*:2]; NMeD = CN[C@@H](CC(=O)O)C(=O)O

Legend:
human plasma Kallikrein = biological target: T1, human plasma Kallikrein (Homo sapiens, UniProt P03952); assay: Functional enzyme inhibition assay with fluorogenic substrate Z-PheArg-AMC, human plasma Kallikrein; type: biochemical; conditions: for Ki: read-out: Ki
T1 construct: purchased Stratech, UK
How it was run: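 Human plasma kallikrein at 26.5 pM was preincubated 15 minutes with test peptide in Tris/NaCl/MgCl2/CaCl2/BSA buffer pH7.4 at 25° C, then Z-PheArg-AMC added to 100 μM final in 4% DMSO.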

[1] = Plasma stability / fragment profiling Method #2 (MALDI-TOF, 95% plasma), human plasma; type: in vitro ADME; conditions: for Fragments (human plasma): peptide fragments observed after incubation in human plasma
Procedure: To obtain stability data more rapidly, peptides were also assessed in 95% plasma. Here, PBS was omitted, and a 1 mM peptide stock (in DMSO) was directly diluted into plasma (i.e. 2.5 uL stock into 47.5 uL plasma), giving a final concentration of 50 uM. 5 uL samples were taken at appropriate time points and frozen at −80 deg C. For analysis, the samples were defrosted, mixed with 15 uL of 1:1 acetonitrile:methanol, and centrifuged at 13 k for 5 min. 5 uL of the peptide-containing supernatant was aspirated and mixed with 30 mM ammonium bicarbonate in a 1:1 mixture of acetonitrile:H2O. 1 uL of this was then spotted on the MALDI plate and analysed as described above. As above, it should be noted that this is a qualitative assay serves to detect relative changes in plasma stability.
Ac-06-34-18(TMB)-NH2 Phe2 Tyr4 (referred to as wild type peptide) was subsequently subjected to human plasma, and analysed for fragments to appear over time. This was compared to the degradation profile observed in human plasma using the NMe-Arg5 derivative of 06-34-18 (FIGS. 18a and 18b). Fragmentation was determined according to Method #2.

[2] = Table 3a, Alanine scan in Loop2
[3] = Table 3a, ratio of Ki to wild type
[4] = Table 3b, D-amino acid scan in Loop2
[5] = Table 3b, ratio of Ki to wild type

T1 sequence (P03952 20-638): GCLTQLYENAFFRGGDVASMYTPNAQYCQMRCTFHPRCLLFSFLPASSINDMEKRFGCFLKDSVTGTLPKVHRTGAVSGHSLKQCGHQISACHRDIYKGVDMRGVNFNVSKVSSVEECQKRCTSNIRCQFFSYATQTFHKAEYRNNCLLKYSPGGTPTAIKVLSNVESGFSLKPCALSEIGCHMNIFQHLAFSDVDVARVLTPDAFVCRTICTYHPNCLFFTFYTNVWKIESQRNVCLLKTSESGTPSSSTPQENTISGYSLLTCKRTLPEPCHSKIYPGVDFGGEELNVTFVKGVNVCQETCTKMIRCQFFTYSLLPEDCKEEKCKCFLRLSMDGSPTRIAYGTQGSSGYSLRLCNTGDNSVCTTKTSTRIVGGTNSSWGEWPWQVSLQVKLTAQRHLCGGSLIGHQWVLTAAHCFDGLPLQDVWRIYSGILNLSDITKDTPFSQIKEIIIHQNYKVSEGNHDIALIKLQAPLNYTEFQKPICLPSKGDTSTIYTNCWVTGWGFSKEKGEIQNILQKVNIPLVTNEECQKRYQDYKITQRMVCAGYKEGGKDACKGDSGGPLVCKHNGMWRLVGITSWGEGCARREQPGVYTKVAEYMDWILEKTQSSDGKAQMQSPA

| SMILES | Ki (human plasma Kallikrein; [2]) [nM] | F (Kivar/KiWT) (human plasma Kallikrein; [3]) | Fragments (human plasma) ([1]; Table 3a) | Ki (human plasma Kallikrein; [4]) [nM] | F (Kivar/KiWT) (human plasma Kallikrein; [5]) | Fragments (human plasma) ([1]; Table 3b) | further results |
| --- | --- | --- | --- | --- | --- | --- | --- |
| CC(=O)N[C@H]1CSCc2cc3cc(c2)CSC[C@H](NC(=O)[C@H](CCCNC(=N)N)NC(=O)[C@H](Cc2ccc(O)cc2)NC(=O)[C@@H]2CCCN2C(=O)[C@H](Cc2ccccc2)NC(=O)[C@H](CO)NC1=O)C(=O)N[C@@H](C)C(=O)N[C@@H](Cc1c[nH]cn1)C(=O)N[C@@H](CCC(N)=O)C(=O)N[C@@H](CC(=O)O)C(=O)N[C@@H](CC(C)C)C(=O)N[C@H](C(N)=O)CSC3 [Ac-(06-34-18) Phe2 Tyr4 Ala6] (Ac-CSFPYRCAHQDLC-NH2; linker 1-7-13 via TBMB) | 1.9 | 5 | -LHQ, -R |  |  |  |  |
| CC(=O)N[C@H]1CSCc2cc3cc(c2)CSC[C@H](NC(=O)[C@H](CCCNC(=N)N)NC(=O)[C@H](Cc2ccc(O)cc2)NC(=O)[C@@H]2CCCN2C(=O)[C@H](Cc2ccccc2)NC(=O)[C@H](CO)NC1=O)C(=O)N[C@@H](CC(C)C)C(=O)N[C@@H](C)C(=O)N[C@@H](CCC(N)=O)C(=O)N[C@@H](CC(=O)O)C(=O)N[C@@H](CC(C)C)C(=O)N[C@H](C(N)=O)CSC3 [Ac-(06-34-18) Phe2 Tyr4 Ala7] (Ac-CSFPYRCLAQDLC-NH2; linker 1-7-13 via TBMB) | 23.4 | 56 | -R |  |  |  | Kd (human plasma Kallikrein): 23 nM; reduction in potency/affinity compared to wildtype (human plasma Kallikrein): 56 fold |
| CC(=O)N[C@H]1CSCc2cc3cc(c2)CSC[C@H](NC(=O)[C@H](CCCNC(=N)N)NC(=O)[C@H](Cc2ccc(O)cc2)NC(=O)[C@@H]2CCCN2C(=O)[C@H](Cc2ccccc2)NC(=O)[C@H](CO)NC1=O)C(=O)N[C@@H](CC(C)C)C(=O)N[C@@H](Cc1c[nH]cn1)C(=O)N[C@@H](C)C(=O)N[C@@H](CC(=O)O)C(=O)N[C@@H](CC(C)C)C(=O)N[C@H](C(N)=O)CSC3 [Ac-(06-34-18) Phe2 Tyr4 Ala8] (Ac-CSFPYRCLHADLC-NH2; linker 1-7-13 via TBMB) | 1.74 | 4 | -LHQ, -R |  |  |  |  |
| CC(=O)N[C@H]1CSCc2cc3cc(c2)CSC[C@H](NC(=O)[C@H](CCCNC(=N)N)NC(=O)[C@H](Cc2ccc(O)cc2)NC(=O)[C@@H]2CCCN2C(=O)[C@H](Cc2ccccc2)NC(=O)[C@H](CO)NC1=O)C(=O)N[C@@H](CC(C)C)C(=O)N[C@@H](Cc1c[nH]cn1)C(=O)N[C@@H](CCC(N)=O)C(=O)N[C@@H](C)C(=O)N[C@@H](CC(C)C)C(=O)N[C@H](C(N)=O)CSC3 [Ac-(06-34-18) Phe2 Tyr4 Ala9] (Ac-CSFPYRCLHQALC-NH2; linker 1-7-13 via TBMB) | 1.58 | 4 | -LHQDL, -R |  |  |  |  |
| CC(=O)N[C@H]1CSCc2cc3cc(c2)CSC[C@H](NC(=O)[C@H](CCCNC(=N)N)NC(=O)[C@H](Cc2ccc(O)cc2)NC(=O)[C@@H]2CCCN2C(=O)[C@H](Cc2ccccc2)NC(=O)[C@H](CO)NC1=O)C(=O)N[C@@H](CC(C)C)C(=O)N[C@@H](Cc1c[nH]cn1)C(=O)N[C@@H](CCC(N)=O)C(=O)N[C@@H](CC(=O)O)C(=O)N[C@@H](C)C(=O)N[C@H](C(N)=O)CSC3 [Ac-(06-34-18) Phe2 Tyr4 Ala10] (Ac-CSFPYRCLHQDAC-NH2; linker 1-7-13 via TBMB) | 13.5 | 32 | -LHQ, -LHQDL, -R |  |  |  |  |
| CC(=O)N[C@H]1CSCc2cc3cc(c2)CSC[C@H](NC(=O)[C@H](CCCNC(=N)N)NC(=O)[C@H](Cc2ccc(O)cc2)NC(=O)[C@@H]2CCCN2C(=O)[C@H](Cc2ccccc2)NC(=O)[C@H](CO)NC1=O)C(=O)N[C@@H](CC(C)C)C(=O)N[C@@H](Cc1c[nH]cn1)C(=O)N[C@H](CCC(N)=O)C(=O)N[C@@H](CC(=O)O)C(=O)N[C@@H](CC(C)C)C(=O)N[C@H](C(N)=O)CSC3 [Ac-(06-34-18) Phe2 Tyr4 D-Gln8] (Ac-CSFPYRCLH[dQ]DLC-NH2; linker 1-7-13 via TBMB) |  |  |  | 317 | 755 | -R, -FPYR |  |
| CC(=O)N[C@H]1CSCc2cc3cc(c2)CSC[C@H](NC(=O)[C@H](CCCNC(=N)N)NC(=O)[C@H](Cc2ccc(O)cc2)NC(=O)[C@@H]2CCCN2C(=O)[C@H](Cc2ccccc2)NC(=O)[C@H](CO)NC1=O)C(=O)N[C@@H](CC(C)C)C(=O)N[C@H](Cc1c[nH]cn1)C(=O)N[C@@H](CCC(N)=O)C(=O)N[C@@H](CC(=O)O)C(=O)N[C@@H](CC(C)C)C(=O)N[C@H](C(N)=O)CSC3 [Ac-(06-34-18) Phe2 Tyr4 D-His7] (Ac-CSFPYRCL[dH]QDLC-NH2; linker 1-7-13 via TBMB) |  |  |  | 129 | 308 | -R, -FPYR |  |
| CC(=O)N[C@H]1CSCc2cc3cc(c2)CSC[C@H](NC(=O)[C@H](CCCNC(=N)N)NC(=O)[C@H](Cc2ccc(O)cc2)NC(=O)[C@@H]2CCCN2C(=O)[C@H](Cc2ccccc2)NC(=O)[C@H](CO)NC1=O)C(=O)N[C@H](CC(C)C)C(=O)N[C@@H](Cc1c[nH]cn1)C(=O)N[C@@H](CCC(N)=O)C(=O)N[C@@H](CC(=O)O)C(=O)N[C@@H](CC(C)C)C(=O)N[C@H](C(N)=O)CSC3 [Ac-(06-34-18) Phe2 Tyr4 D-Leu6] (Ac-CSFPYRC[dL]HQDLC-NH2; linker 1-7-13 via TBMB) |  |  |  | 9080 | 21615 | -R, -FPYR |  |
| CC(=O)N[C@H]1CSCc2cc3cc(c2)CSC[C@H](NC(=O)[C@H](CCCNC(=N)N)NC(=O)[C@H](Cc2ccc(O)cc2)NC(=O)[C@@H]2CCCN2C(=O)[C@H](Cc2ccccc2)NC(=O)[C@H](CO)NC1=O)C(=O)N[C@@H](CC(C)C)C(=O)N[C@@H](Cc1c[nH]cn1)C(=O)N[C@@H](CCC(N)=O)C(=O)N[C@@H](CC(=O)O)C(=O)N[C@H](CC(C)C)C(=O)N[C@H](C(N)=O)CSC3 [Ac-(06-34-18) Phe2 Tyr4 D-Leu10] (Ac-CSFPYRCLHQD[dL]C-NH2; linker 1-7-13 via TBMB) |  |  |  | 416 | 990 | -R, -FPYR |  |
| CC(=O)N[C@H]1CSCc2cc3cc(c2)CSC[C@H](NC(=O)[C@H](CCCNC(=N)N)NC(=O)[C@H](Cc2ccc(O)cc2)NC(=O)[C@@H]2CCCN2C(=O)[C@H](Cc2ccccc2)NC(=O)[C@H](CO)NC1=O)C(=O)N[C@@H](CC(C)C)C(=O)N(CCc1c[nH]cn1)CC(=O)N[C@@H](CCC(N)=O)C(=O)N[C@@H](CC(=O)O)C(=O)N[C@@H](CC(C)C)C(=O)N[C@H](C(N)=O)CSC3 [Ac-(06-34-18) Phe2 Tyr4 N-His] (Ac-CSFPYRCL[Gly(N-CH2CH2-imidazol-4-yl)]QDLC-NH2; linker 1-7-13 via TBMB) |  |  |  |  |  |  | degradation / fragments in human plasma (in words) ([1]; running text and figure legends): significantly enhanced stability in loop2 |
| CC(=O)N[C@H]1CSCc2cc3cc(c2)CSC[C@H](NC(=O)[C@H](CCCNC(=N)N)NC(=O)[C@H](Cc2ccc(O)cc2)NC(=O)[C@@H]2CCCN2C(=O)[C@H](Cc2ccccc2)NC(=O)[C@H](CO)NC1=O)C(=O)N[C@@H](CC(C)C)C(=O)N[C@@H](Cc1c[nH]cn1)C(=O)N[C@@H](CCC(N)=O)C(=O)N(C)[C@@H](CC(=O)O)C(=O)N[C@@H](CC(C)C)C(=O)N[C@H](C(N)=O)CSC3 [Ac-(06-34-18) Phe2 Tyr4 NMe-Asp9] (Ac-CSFPYRCLHQ[NMeD]LC-NH2; linker 1-7-13 via TBMB) |  |  |  |  |  |  | F (Kivar/KiWT) (human plasma Kallikrein; Table 25a, fold change of Ki of variant compared to WT): 105; Ki (human plasma Kallikrein; Table 25a, α-N-methyl amino acid scan in Loop2, human plasma kallikrein): 44.3 nM; Fragments (human plasma) ([1]; Table 25a): -R, -FPYR |
